Results: patent US6576771B1, “Oxymethoxy-3-aryl-pyrone derivatives” (Bayer Aktiengesellschaft, priority 1995, dated 2003)

What was measured:
[1] = tested on: larvae of the green rice leafhopper (Nephotettix cincticeps); assay: Nephotettix test; format: in vivo; conditions: after 6 days; active compound concentration 0.1%; rice seedlings dipped
Description: Nephotettix Test Solvent: 7 parts by weight of dimethylformamide Emulsifier: 1 part by weight of alkylaryl polyglycol ether […] Rice seedlings (Oryzae sativa) are treated by being dipped into the preparation of the active compound of the desired concentration and are infested with larvae of the green rice leafhopper (Nephotettix cincticeps), while the seedlings are still moist.

[2] = tested on: black bean aphids (Aphis fabae); assay: Limit concentration test / root-systemic action; format: in vivo; conditions: active compound concentration 20 ppm in soil; beans (Vicia faba); leaves infested after 7 days, evaluated after a further 2 days
From the text: Limit Concentration Test/Root-systemic Action Test insect: Aphis fabae Solvent: 4 parts by weight of acetone Emulsifier: 1 part by weight of alkylaryl polyglycol ether […] The preparation of active compound is intimately mixed with soil. The concentration of the active compound in the preparation is of no importance in practise, only the amount by weight of active compound per unit volume of soil, which is given in ppm (=mg/l), being decisive. The treated soil is transferred into pots and these are planted with beans (Vicia faba). The active compound can in this way be taken up from the soil by the roots of the plants and be transported into the leaves. […] After a further 2 days, the evaluation is made by counting or estimating the dead animals. The root-systemic action of the active compound is deduced from the destruction figures.

[3] = tested on: common spider mite (Tetranychus urticae); assay: Tetranychus test (resistance); format: in vivo; conditions: after 13 days; active compound concentration 0.01%; bean plants dipped
Description: Tetranychus Test (Resistance)
Solvent: 3 parts by weight of dimethylformamide
(§1) Emulsifier: 1 part by weight of alkylaryl polyglycol ether
After the specified period of time, the destruction in % is determined. 100% means that all the spider mites have been killed 0% means that none of the spider mites have been killed.

[4] = tested on: All larval stages of Lucilia cuprina (OP resistant); assay: Test with fly larvae / development-inhibiting activity; format: in vivo; conditions: active compound concentration 1000 ppm
Description: Test with Fly Larvae/Development-inhibiting Activity
Test animals: All larval stages of Lucilia cuprina (OP resistant) [Pupae and adults (without contact with the active compound)]
Solvent: 35 parts by weight of ethylene glycol monomethyl ether 35 parts by weight of nonylphenol polyglycol ether
For each concentration, 30 to 50 larvae are introduced into test tubes containing horse meat (1 cm^3), onto which […] of the dilution under test are pipetted. The glass test tubes are placed in plastic beakers which have bottoms covered with sea sand and are kept in an air-conditioned room (26° C.±1.5° C., 70% relative humidity ±10%). The action is inspected after 24 hours and 48 hours (larvicidal action). After emigration of the larvae (approximately 72 h), the test tubes are removed and perforated plastic lids are placed on the beakers. After 1½ times the development period (emergence of the control flies), the emerged flies and the pupae/pupal cases are counted.
The criterion of activity used is the occurrence of death of the treated larvae after 48 h (larvicidal effect), or the inhibition of adult emergence from the pupae, or inhibition of pupal formation. The criterion used for the in-vitro activity of a substance is inhibition of fly development, or cessation of development prior to the adult stage. 100% larvicidal activity means that all larvae have died after 48 hours. 100% development inhibition activity means that no adult flies emerged.

Sphaerotheca fuliginea = assay: Sphaerotheca test (cucumber) / protective; conditions: active compound concentration 100 ppm, evaluation 10 days after inoculation
Description: Solvent: 4.7 parts by weight of acetone
Emulsifier: 0.3 parts by weight of alkylaryl polyglycol ether
After the spray coating has dried on, the plants are dusted with conidia of the fungus Sphaerotheca fuliginea.
The plants are then placed in a greenhouse at 23 to 24° C. and at a relative atmospheric humidity of about 75%.
Evaluation is carried out 10 days after the inoculation.

[5] = tested on: mustard beetle larvae (Phaedon cochleariae); assay: Phaedon larvae test; format: in vivo; conditions: after 7 days; active compound concentration 0.01%; cabbage leaves dipped
Description: (§2) Phaedon Larvae Test Solvent: 7 parts by weight of dimethylformamide Emulsifier: 1 part by weight of alkylaryl polyglycol ether […] Cabbage leaves (Brassica oleracea) are treated by being dipped into the preparation of the active compound of the desired concentration and are infested with mustard beetle larvae (Phaedon cochleariae), while the leaves are still moist.

[6] = tested on: caterpillars of the diamond-back moth (Plutella maculipennis); assay: Plutella test; format: in vivo; conditions: after 7 days; active compound concentration 0.1%; cabbage leaves dipped
Description: as §2, with “Plutella” for “Phaedon Larvae”, “caterpillars of the diamond-back moth (Plutella maculipennis),” for “mustard beetle larvae (Phaedon cochleariae),”

[7] = tested on: caterpillars of the owlet moth (Spodoptera frugiperda); assay: Spodoptera test; format: in vivo; conditions: after 7 days; active compound concentration 0.1%; cabbage leaves dipped
Description: Solvent: 7 parts by weight of dimethylformamide
as §1
Cabbage leaves (Brassica oleracea) are treated by being dipped into the preparation of the active compound of the desired concentration and are infested with caterpillars of the owlet moth (Spodoptera frugiperda), while the leaves are still moist.
After the specified period of time, the destruction in % is determined. 100% means that all the caterpillars have been killed; 0% means that none of the caterpillars have been killed.

Structure (SMILES) | degree of destruction [1] [%] | activity in comparison with the untreated control (Sphaerotheca fuliginea) [%] | degree of destruction [5] [%] | degree of destruction [6] [%] | other results
C#CCOCOc1c(C)c(C2CCCC2)oc(=O)c1-c1c(C)cc(C)cc1C [Example 33] | 100 | – | – | – | –
Cc1cc(C)c(-c2c(OCOC(C)C)c(C)c(-c3ccccn3)oc2=O)c(C)c1 [Example 11] | 100 | 100 | – | – | degree of destruction (root-systemic action) [2]: 100%; degree of destruction [3]: 100%; activity (larvicidal / development inhibition) [4]: 100%
CCOCOc1c(C)c(-c2ccc(F)cc2)oc(=O)c1-c1c(C)cc(C)cc1C [Example 4] | 100 | 100 | 100 | 100 | activity (larvicidal / development inhibition) [4]: 100%; degree of destruction [7]: 100%
Cc1cc(C)c(-c2c(OCOC(C)C)c(C)c(-c3ccc(F)cc3)oc2=O)c(C)c1 [Example 9] | 100 | 100 | 100 | 100 | degree of destruction [3]: 100%; activity (larvicidal / development inhibition) [4]: 100%; degree of destruction [7]: 100%
Cc1cc(C)c(-c2c(OCOCC(C)C)oc(-c3ccsc3)c(C)c2=O)c(C)c1 [Example 36, 2-[(2-Methyl-1-propoxy)-methoxy]-5-methyl-6-(3-thienyl)-3-(2,4,6-trimethyl-phenyl)-4-pyrone] | – | – | – | – | melting point: 102 to 104 °C
C#CCOCOc1c(C)c(-c2ccc(F)cc2)oc(=O)c1-c1c(C)cc(C)cc1C [Example 7] | 100 | 100 | – | – | –
Cc1cc(C)c(-c2c(OCOCC(C)C)c(C)c(-c3ccc(F)cc3)oc2=O)c(C)c1 [Example 8] | – | 100 | – | – | –
CCOCOc1c(C)c(C2CCCC2)oc(=O)c1-c1c(C)cc(C)cc1C [Example 32] | 100 | – | – | 100 | degree of destruction [7]: 100%
Cc1cc(C)c(-c2c(OCOC(C)C)c(C)c(C3CCCC3)oc2=O)c(C)c1 [Example 34] | – | – | – | 100 | degree of destruction [7]: 100%
Cc1cc(C)c(-c2c(OCOCC(C)C)c(C)c(-c3cccc(C)n3)oc2=O)c(C)c1 [Example 27] | 100 | – | 100 | 100 | –
C#CCOCOc1c(C)c(-c2ccccn2)oc(=O)c1-c1c(C)cc(C)cc1C [Example 1, 5-methyl-6-(2-pyridyl)-4-propargyloxymethoxy-3-(2,4,6-trimethylphenyl)-2-pyrone] | 100 | 100 | – | – | degree of destruction (root-systemic action) [2]: 100%; inhibition at 1000 ppm ([4]; Lucilia cuprina, read-out: activity (larvicidal / development inhibition)): 100%
CCOCOc1cc(CC(C)C)oc(=O)c1-c1c(C)cc(C)cc1C [Example 5] | – | – | 100 | 100 | degree of destruction [7]: 100%
Cc1cc(C)c(-c2c(OCOC(C)C)cc(C3(Cl)CC3)oc2=O)c(C)c1 [Example 21] | 100 | 100 | – | – | degree of destruction [3]: 100%
CCOCOc1c(C)c(-c2ccccn2)oc(=O)c1-c1c(C)cc(C)cc1C [Example 26] | 100 | – | 100 | – | –
Cc1cc(C)c(-c2c(OCOC(C)C)c(C)c(-c3cccc(C)n3)oc2=O)c(C)c1 [Example 28] | 100 | – | 100 | 100 | –
Cc1cc(C)c(-c2c(OCOCC(C)C)c(C)c(-c3ccc(Cl)cc3)oc2=O)c(C)c1 [Example 2, 6-(4-chlorophenyl)-4-[(2-methyl-1-propoxy)-methoxy]-5-methyl-3-(2,4,6-trimethylphenyl)-2-pyrone] | – | 100 | – | – | –
Cc1cc(C)c(-c2c(OCOCC(C)C)c(C)c(-c3ccccn3)oc2=O)c(C)c1 [Example 10] | – | 100 | – | 100 | degree of destruction (root-systemic action) [2]: 100%; degree of destruction [3]: 100%; activity (larvicidal / development inhibition) [4]: 100%
